Here are results for three molecules from patent publication US11439607B2 (Paracelsus Neuroscience I, LLC, priority 2016, dated 2022).

One experiment has as its system CCI rats. As to the kind of experiment: Chronic constriction injury (CCI) model, von Frey paw withdrawal threshold. In kind it is in vivo, rat. The note with it: gabapentin 100 mg/kg p.o., 2 hours after administration. As for the experimental part: Peripheral nerve injury was performed according to the method of Bennett and Xie (Bennett and Xie, 1988), with paw withdrawal thresholds to Von Frey filament stimulation measured as described previously (Chaplan et al., 1994; Tal and Bennett, 1994).
In the first cohort of nerve injured rats, hindpaw mechanical hypersensitivity was evident by day 7 and maintained for the duration of the experiment (see FIG. 4A). […] Experiments were run using a simple cross-over design. Tactile hypersensitivity of rats was evaluated one day prior to drug testing. Drugs were allowed to wash out for one week at which time the mechanical hypersensitivity was reassessed. Rats were then randomly re-assigned to groups prior to the next arm of the study being run. In the final arm, tissue was collected from 3 animals from each group immediately after behavioral assessment of allodynia. Dosing of drugs, assessment of mechanical thresholds and collection of tissues were performed by individual experimenters all blinded to treatments.
All CCI data are presented as mean+/−S.E.M. and were analyzed using ANOVA followed by Fisher's PLSD post-hoc analysis (StatView, Cary, N.C.) when appropriate.

For another experiment, the system named is Oxaliplatin model. As to the kind of experiment: Oxaliplatin - Acetone test (reaction time). The following applies: Internal reference, Gabapentin 100 mg/kg p.o. In kind it is in vivo, rodent. How it is done: (§1) Depending on the test, the percentage of activity was calculated from the mean value of the vehicle-treated animals and compared to naïve animals, control paw or cut-off value.

In experiment [1] the test system is Healthy rats. As to the kind of experiment: Healthy rats - Paw pressure test. In kind it is in vivo. The note with it: Internal reference, Morphine 4 mg/kg s.c. As for the experimental part: as §1
In experiment [2] the test system is Healthy rats. Kind of experiment: Healthy rats - Tail flick test. In kind it is in vivo. The following applies: Internal reference, Morphine 4 mg/kg s.c. As for the experimental part:
as §1
(In general: Thermal pain tests record how soon the animal reacts.)

In the next experiment the test system is Formalin test. As to the kind of experiment: Formalin test - Score. In kind it is in vivo, rodent. The following applies: internal reference, Morphine 4 mg/kg s.c. As for the experimental part: as §1
In a further experiment the test system is Bennett model. As to the kind of experiment: Bennett model - Paw pressure test. The following applies: Internal reference, Morphine 4 mg/kg s.c. The experiment is classed as in vivo, rodent. As for the experimental part: as §1
The test system of another experiment is Brennan model. Kind of experiment: Brennan model - Electronic Von Frey test. The following applies: Internal reference, Morphine 4 mg/kg s.c. The experiment is classed as in vivo, rodent. How it is done: as §1
The test system of another experiment is Carrageenan model. Kind of experiment: Carrageenan - Paw pressure test. The following applies: Internal reference, Indomethacin 30 mg/kg p.o. The experiment is classed as in vivo, rodent. How it is done: as §1
On the technique in general: The carrageenan paw model is a standard test of acute inflammation.

The next experiment relates to Kaolin model. Kind of experiment: Kaolin - Gait score. The note with it: Internal reference, Indomethacin 10 mg/kg p.o. The experiment is classed as in vivo, rodent. As for the experimental part: as §1

As to `NCC1(CC(=O)O)CCCCC1` [Gabapentin], the “Reversal of mechanical hypersensitivity (tactile allodynia)” value with CCI rats is on record as 66%. Also, the “% of activity vs. vehicle” value in the experiment on Oxaliplatin model came out at 82%.
For the molecule `CN1CC[C@]23c4c5ccc(O)c4O[C@H]2[C@@H](O)C=C[C@H]3[C@H]1C5` [Morphine], the “% of activity vs. vehicle” value in the experiment on Healthy rats [1] is given as 69%; in the experiment with Healthy rats [2], 66%; in the experiment with Formalin test (early phase) it was 57%; in the experiment on Formalin test (late phase) it was 38%; with Bennett model, 191%; with Brennan model it was 88%.
Consider `COc1ccc2c(c1)c(CC(=O)O)c(C)n2C(=O)c1ccc(Cl)cc1` [Indomethacin], for which the entries for the “% of activity vs. vehicle” value in the experiment with Carrageenan model and in the experiment with Kaolin model were 100% and 58%, respectively.
